{"source": "patent US12318359B2", "about": "“Combination methods and compositions including sleep therapeutics for treating mood” (priority 2012, dated 2025)", "system": "depression", "assay": "Beck Depression Inventory II score, case study of a depressed patient", "assay_type": "in vivo, human", "conditions": "person; after three months of fluoxetine monotherapy (20 mg daily raised to 60 mg daily); score at first visit 28", "source_text": "“Depression symptoms rating scale” refers to any one of a number of standardized questionnaires, clinical instruments, or symptom inventories utilized to measure symptoms and symptom severity in depression. Such rating scales are often used in clinical studies to define treatment outcomes, based on changes from the study's entry point(s) to endpoint(s). Such depression symptoms rating scales include, but are not limited to, The Quick Inventory of Depressive-Symptomatology Self-Report (QIDS-SR16), the 17-Item Hamilton Rating Scale of Depression (HRSD17), the 30-Item Inventory of Depressive Symptomatology (IDS-C30), or The Montgomery-Asperg Depression Rating Scale (MADRS) and […] Depression Inventory II. Such ratings scales may involve patient self-report or be clinician rated. A 50% or greater reduction in a depression ratings scale score over the course of a clinical trial (starting point to endpoint) is typically considered a favorable response for most depression symptoms rating scales. “Remission” in clinical studies of depression often refers to achieving at, or below, a particular numerical rating score on a depression symptoms rating scale, i.e., less than or equal to 7 on the HRSD17; or less than or equal to 5 on the QIDS-SR16; or less than or equal to 10 on the MADRS or less than or equal to 9 on the Beck Depression Inventory II. […]"}
{"compound": "CNCCC(Oc1ccc(C(F)(F)F)cc1)c1ccccc1", "note": "(stereo not shown) [fluoxetine]", "values": [{"measurement": "Beck Depression Inventory II score", "value": 26}]}
